Reference: PubChem BioAssay (NCI)
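1) Cells in 96-well plates. 2) Compound, 48 h, 5 concentrations. 3) Linear interpolation between surrounding doses. 4) Unreached endpoint = highest concentration. Definition used: TGI = concentration required for complete inhibition of growth.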

Tests used:
Experiment in all cases: growth of human tumour cells (NCI), 48 h
[1] = system: U251 CNS
[2] = system: NCI-H23 lung
[3] = system: 786-0 renal
[4] = system: A549 NSCLC
[5] = system: SR leukemia
[6] = system: HS 578T breast
[7] = system: CCRF-CEM leukemia
[8] = system: MDA-N
[9] = system: SK-MEL-5 melanoma
[10] = system: MALME-3M melanoma
[11] = system: COLO 205 colon
[12] = system: IGROV1 ovarian
[13] = system: HCC-2998 colon
[14] = system: DU-145 prostate
[15] = system: KM12 colon
[16] = system: SK-OV-3 ovarian
[17] = system: HOP-62 NSCLC
[18] = system: OVCAR-4 ovarian
[19] = system: MDA-MB-231 breast
[20] = system: UACC-62 melanoma
[21] = system: MDA-MB-435
[22] = system: SNB-75 CNS
[23] = system: HOP-92 NSCLC
[24] = system: HL-60(TB) leukemia
[25] = system: RPMI-8226 leukemia
[26] = system: K-562 leukemia
[27] = system: SF-295 CNS
[28] = system: SK-MEL-28 melanoma
[29] = system: OVCAR-8 ovarian
[30] = system: HT29 colon
[31] = system: TK-10 renal
[32] = system: BT-549 breast
[33] = system: OVCAR-5 ovarian
[34] = system: CAKI-1 renal
[35] = system: SN12C renal
[36] = system: PC-3 prostate
[37] = system: HCT-116 colon
[38] = system: HCT-15 colon
[39] = system: EKVX NSCLC
[40] = system: NCI-H226 lung
[41] = system: MCF7 breast
[42] = system: SW-620 colon
[43] = system: SF-539 CNS
[44] = system: UO-31 renal
[45] = system: UACC-257 melanoma
[46] = system: ACHN renal
[47] = system: NCI/ADR-RES ovarian
[48] = system: NCI-H522 lung
[49] = system: LOX IMVI melanoma
[50] = system: SNB-19 CNS
[51] = system: MOLT-4 leukemia
[52] = system: M14 melanoma
[53] = system: SK-MEL-2 melanoma
[54] = system: T-47D breast
[55] = system: OVCAR-3 ovarian
[56] = system: RXF 393 renal
[57] = system: SF-268 CNS
[58] = system: NCI-H460 lung

## c1ccc2[nH]c(C3CCCCO3)nc2c1 (stereo not drawn)
[1]
  TGI: > 100 µM
[2]
  TGI: > 100 µM
[3]
  TGI: > 100 µM
[4]
  TGI: > 100 µM
[5]
  TGI: > 100 µM
[6]
  TGI: > 100 µM
[7]
  TGI: > 100 µM
[8]
  TGI: > 100 µM
[9]
  TGI: > 100 µM
[10]
  TGI: > 100 µM
[11]
  TGI: > 100 µM
[12]
  TGI: > 100 µM
[13]
  TGI: > 100 µM
[14]
  TGI: > 100 µM
[15]
  TGI: > 100 µM
[16]
  TGI: > 100 µM
[17]
  TGI: > 100 µM
[18]
  TGI: > 100 µM
[19]
  TGI: > 100 µM
[20]
  TGI: > 100 µM
[21]
  TGI: > 100 µM
[22]
  TGI: > 100 µM
[23]
  TGI: > 100 µM
[24]
  TGI: > 100 µM
[25]
  TGI: > 100 µM
[26]
  TGI: > 100 µM
[27]
  TGI: > 100 µM
[28]
  TGI: > 100 µM
[29]
  TGI: > 100 µM
[30]
  TGI: > 100 µM
[31]
  TGI: > 100 µM
[32]
  TGI: > 100 µM
[33]
  TGI: > 100 µM
[34]
  TGI: > 100 µM
[35]
  TGI: > 100 µM
[36]
  TGI: > 100 µM
[37]
  TGI: > 100 µM
[38]
  TGI: > 100 µM
[39]
  TGI: > 100 µM
[40]
  TGI: > 100 µM
[41]
  TGI: > 100 µM
[42]
  TGI: > 100 µM
[43]
  TGI: > 100 µM
[44]
  TGI: > 100 µM
[45]
  TGI: > 100 µM
[46]
  TGI: > 100 µM
[47]
  TGI: > 100 µM
[48]
  TGI: > 100 µM
[49]
  TGI: > 100 µM
[50]
  TGI: > 100 µM
[51]
  TGI: > 100 µM
[52]
  TGI: > 100 µM
[53]
  TGI: > 100 µM
[54]
  TGI: > 100 µM
[55]
  TGI: > 100 µM
[56]
  TGI: > 100 µM
[57]
  TGI: > 100 µM

## CC(C)(O)C1CC[C@]2(C)CC[C@]3(C)[C@H](CC[C@@H]4[C@@]5(C)CC[C@H](O)C(C)(C)[C@@H]5CC[C@]43C)[C@@H]12 (stereo partly drawn)
[1]
  TGI: > 100 µM
[2]
  TGI: > 100 µM
[58]
  TGI: > 100 µM
[3]
  TGI: 78.1 µM
[4]
  TGI: > 100 µM
[5]
  TGI: > 100 µM
[6]
  TGI: 68.1 µM
[7]
  TGI: > 100 µM
[8]
  TGI: > 100 µM
[9]
  TGI: > 100 µM
[10]
  TGI: 57.7 µM
[11]
  TGI: 92.2 µM
[12]
  TGI: 85.8 µM
[13]
  TGI: 51.9 µM
[14]
  TGI: 57.9 µM
[15]
  TGI: 89.3 µM
[16]
  TGI: 49.3 µM
[17]
  TGI: 84.3 µM
[18]
  TGI: 78.3 µM
[19]
  TGI: > 100 µM
[20]
  TGI: > 100 µM
[21]
  TGI: > 100 µM
[22]
  TGI: 45.7 µM
[23]
  TGI: 44.1 µM
[24]
  TGI: > 100 µM
[25]
  TGI: > 100 µM
[26]
  TGI: > 100 µM
[27]
  TGI: 57.6 µM
[28]
  TGI: 67.7 µM
[29]
  TGI: > 100 µM
[30]
  TGI: > 100 µM
[31]
  TGI: 53.3 µM
[32]
  TGI: 60.9 µM
[33]
  TGI: 75.9 µM
[34]
  TGI: 45.6 µM
[35]
  TGI: > 100 µM
[36]
  TGI: > 100 µM
[37]
  TGI: 59.4 µM
[38]
  TGI: > 100 µM
[39]
  TGI: 44.5 µM
[40]
  TGI: > 100 µM
[41]
  TGI: > 100 µM
[43]
  TGI: 55.4 µM
[44]
  TGI: > 100 µM
[45]
  TGI: 50.2 µM
[46]
  TGI: 71.3 µM
[47]
  TGI: 82.4 µM
[48]
  TGI: 73.2 µM
[50]
  TGI: > 100 µM
[51]
  TGI: > 100 µM
[52]
  TGI: 95.4 µM
[53]
  TGI: 62.5 µM
[54]
  TGI: 66.2 µM
[55]
  TGI: 50.7 µM
[56]
  TGI: > 100 µM
[57]
  TGI: > 100 µM
